Where a SMILES comes first, the peptide text is derived from it. Bridges are numbered along the chain shown (N, C = ends).
Key:
[1] = tested on: Nav1.7 channel; design: method as in 3 sources, one per row (each row's own in cited_ref): ref Murray et al., 2015 ||| ref Chen et al., 2020 ||| ref Xiao et al., 2010; details: ProTx-II; ref Xiao et al., 2010; cited from earlier work
[2] = tested on: Kv2.1 channel; details: ref Chen et al., 2012; Bemporad et al., 2006; cited from earlier work
From the text: The venom of the spider Grammostola rosea contains several classes of peptide toxins that target ion channels (Figure 1A). […] Due to poor heterologous expression in mammal cells, pharmacological studies of the Nav1.9 channel have lagged. Previously, we succeeded in achieving functional ...

[3] = target: T1, Nav1.9/1.8 DIV VSD (Homo sapiens, UniProt Q9UI33, A1385V/A1393E/C1434F/D1399G/DEL1452-1455/H1400R/I1367A/I1373M/I1377C/I1397V/I1408V/I1415M/I1417M/I1446F/I1464V/INS1447AILK/K1392E/K1395T/L1401I/L1411G/L1414V/L1431V/L1438I/M1394K/M1445L/N1389E/P1391G/P1456Y/P1458S/R1481K/S1365R/S1374V/S1382T/S1387T/S1396K/T1444L/T1448S/V1404F/V1407A/V1435I/V1442G/V1465I/V1477I/W1403Q/Y1388D); test: Patch-clamp, chimera Nav1.9/1.8 DIV VSD; type: cell-based, human Nav1.9 / rat Nav1.8; details: mean ± SEM, n = 4; I95/Ipeak; read-out: EC50 for inhibition of the fast inactivation
T1 construct: expressed in transfected cells; host or cells: ND7/23
From the text: (§1) Rat Nav1.4, human Nav1.7 and rat Nav1.8 cDNA clones were kindly gift from Dr. Theodore Cummins (Stark Neurosciences Research Institute, Indiana University School of Medicine, Indianapolis, IN, United States) and were subcloned into the pCMV or pCDNA3.1-blank vectors. Human Nav1.9 was subcloned into the pEGFP-N1 vector. The C-terminal of hNav1.9 was linked to GFP to construct a fusion protein channel (hNav1.9-eGFP), which was as described in our previous studies ([Zhou et al., 2017]). Mutations were made using the site-directed mutation method or recombination-based cloning using GenBuilder™ Cloning Kit (GenScript, United States). Primers presented in Supplementary Tables 1–4. All mutations were verified by DNA sequencing.
(§2) ND7/23 and HEK293T cells were maintained at 37°C in a humidified 5% CO2 incubator in Dulbecco’s Modified Eagle’s Medium (DMEM) supplemented with 10% fetal bovine serum, 100 μg/ml streptomycin, 100 U/ml penicillin, and 2 mM L-glutamine. The cells were trypsinized, diluted with 1 ml of culture medium, and seeded at a 1:5 ratio in 35 mm Petri dishes for culture. When grown to 80–90% confluence, the ND7/23 cells were transfected with hNav1.9-GFP or hNav1.9-GFP mutants using the X-tremeGENE HP DNA Transfection Reagent (Roche, Basel, Switzerland) according to the manufacturer’s instructions. […]

[4] = target: T2, Nav1.4 (Rattus norvegicus, UniProt P15390); test: Whole-cell patch-clamp, Nav1.4 current in HEK293T cells; type: cell-based; details: 50 ms steps to −10 mV from −90 mV, n = 4–6, read-out: IC50 for inhibition of Nav1.4 current
T2 construct: expressed in transfected cells; host or cells: HEK293T
From the text: as §1, §2

[5] = target: T3, Nav1.9 (Homo sapiens, UniProt Q9UI33); test: Whole-cell patch-clamp, fast inactivation of Nav1.9 in ND7/23 cells; type: cell-based; details: 100 ms depolarization to −40 mV from −120 mV, Hill fit, mean ± SEM, n = 6, read-out: EC50 for inhibition of the fast inactivation of Nav1.9
T3 construct: expressed in transfected cells; host or cells: ND7/23
From the text: as §1, §2

[6] = target: T4, Nav1.7 (Homo sapiens, UniProt Q15858); test: Whole-cell patch-clamp, Nav1.7 current in HEK293T cells; type: cell-based; details: 50 ms steps to −10 mV from −90 mV, n = 4–6, read-out: IC50 for inhibition of Nav1.7 current
T4 construct: expressed in transfected cells; host or cells: HEK293T
From the text: as §1, §2

[7] = tested on: voltage sensor of Nav channels; details: ref Xiao et al., 2008, 2010, Zhou et al., 2020, Liu et al., 2013; cited from earlier work
From the text: Gating modifier toxins typically affect channel gating by regulating the voltage-sensor of the channel. […] Ther ...

T2 sequence (P15390 whole entry): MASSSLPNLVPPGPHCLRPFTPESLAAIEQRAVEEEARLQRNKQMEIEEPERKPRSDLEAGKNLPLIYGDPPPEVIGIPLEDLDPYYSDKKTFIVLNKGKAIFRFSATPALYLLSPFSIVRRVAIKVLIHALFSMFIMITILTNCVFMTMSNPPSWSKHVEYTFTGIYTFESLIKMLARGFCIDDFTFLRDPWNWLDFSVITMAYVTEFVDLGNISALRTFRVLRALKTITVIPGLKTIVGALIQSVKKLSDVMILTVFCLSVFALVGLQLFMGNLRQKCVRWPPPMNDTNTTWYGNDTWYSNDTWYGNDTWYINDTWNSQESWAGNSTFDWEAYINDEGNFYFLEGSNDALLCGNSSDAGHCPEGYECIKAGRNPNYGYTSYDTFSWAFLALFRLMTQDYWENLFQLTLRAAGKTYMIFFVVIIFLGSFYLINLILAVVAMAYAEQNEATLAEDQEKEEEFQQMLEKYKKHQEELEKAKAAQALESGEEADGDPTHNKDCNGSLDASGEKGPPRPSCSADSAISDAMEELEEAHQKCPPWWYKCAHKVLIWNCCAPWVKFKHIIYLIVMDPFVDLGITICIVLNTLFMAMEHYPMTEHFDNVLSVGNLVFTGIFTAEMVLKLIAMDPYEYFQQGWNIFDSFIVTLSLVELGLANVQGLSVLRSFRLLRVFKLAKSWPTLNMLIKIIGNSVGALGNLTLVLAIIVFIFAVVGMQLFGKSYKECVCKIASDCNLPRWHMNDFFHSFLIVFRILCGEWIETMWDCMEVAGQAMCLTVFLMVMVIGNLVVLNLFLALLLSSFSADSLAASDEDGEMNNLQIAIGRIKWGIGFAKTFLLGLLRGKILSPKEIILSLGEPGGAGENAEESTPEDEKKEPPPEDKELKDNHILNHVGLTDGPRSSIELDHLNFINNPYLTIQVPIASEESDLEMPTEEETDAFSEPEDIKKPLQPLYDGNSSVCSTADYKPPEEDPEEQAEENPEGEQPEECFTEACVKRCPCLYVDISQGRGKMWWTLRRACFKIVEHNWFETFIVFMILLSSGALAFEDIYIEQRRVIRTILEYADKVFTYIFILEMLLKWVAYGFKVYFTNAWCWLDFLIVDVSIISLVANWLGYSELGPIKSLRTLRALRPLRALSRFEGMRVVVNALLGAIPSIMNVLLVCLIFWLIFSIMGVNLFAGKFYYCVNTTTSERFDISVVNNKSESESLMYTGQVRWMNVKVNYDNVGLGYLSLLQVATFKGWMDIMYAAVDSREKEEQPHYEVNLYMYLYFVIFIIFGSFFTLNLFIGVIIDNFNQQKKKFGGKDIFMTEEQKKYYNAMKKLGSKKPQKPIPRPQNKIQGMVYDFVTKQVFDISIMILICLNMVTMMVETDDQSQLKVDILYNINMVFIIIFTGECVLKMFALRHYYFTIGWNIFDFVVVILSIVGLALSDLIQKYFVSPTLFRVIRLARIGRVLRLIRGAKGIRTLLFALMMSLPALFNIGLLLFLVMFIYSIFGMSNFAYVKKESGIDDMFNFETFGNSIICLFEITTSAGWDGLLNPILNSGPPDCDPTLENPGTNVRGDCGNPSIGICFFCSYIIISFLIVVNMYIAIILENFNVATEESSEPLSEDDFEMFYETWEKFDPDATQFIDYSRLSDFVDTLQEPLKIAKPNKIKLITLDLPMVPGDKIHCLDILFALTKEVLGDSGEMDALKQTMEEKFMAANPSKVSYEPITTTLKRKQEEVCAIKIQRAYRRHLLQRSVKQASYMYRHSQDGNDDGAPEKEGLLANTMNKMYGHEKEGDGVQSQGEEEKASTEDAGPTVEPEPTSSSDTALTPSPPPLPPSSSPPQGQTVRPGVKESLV
T3 sequence (Q9UI33 whole entry): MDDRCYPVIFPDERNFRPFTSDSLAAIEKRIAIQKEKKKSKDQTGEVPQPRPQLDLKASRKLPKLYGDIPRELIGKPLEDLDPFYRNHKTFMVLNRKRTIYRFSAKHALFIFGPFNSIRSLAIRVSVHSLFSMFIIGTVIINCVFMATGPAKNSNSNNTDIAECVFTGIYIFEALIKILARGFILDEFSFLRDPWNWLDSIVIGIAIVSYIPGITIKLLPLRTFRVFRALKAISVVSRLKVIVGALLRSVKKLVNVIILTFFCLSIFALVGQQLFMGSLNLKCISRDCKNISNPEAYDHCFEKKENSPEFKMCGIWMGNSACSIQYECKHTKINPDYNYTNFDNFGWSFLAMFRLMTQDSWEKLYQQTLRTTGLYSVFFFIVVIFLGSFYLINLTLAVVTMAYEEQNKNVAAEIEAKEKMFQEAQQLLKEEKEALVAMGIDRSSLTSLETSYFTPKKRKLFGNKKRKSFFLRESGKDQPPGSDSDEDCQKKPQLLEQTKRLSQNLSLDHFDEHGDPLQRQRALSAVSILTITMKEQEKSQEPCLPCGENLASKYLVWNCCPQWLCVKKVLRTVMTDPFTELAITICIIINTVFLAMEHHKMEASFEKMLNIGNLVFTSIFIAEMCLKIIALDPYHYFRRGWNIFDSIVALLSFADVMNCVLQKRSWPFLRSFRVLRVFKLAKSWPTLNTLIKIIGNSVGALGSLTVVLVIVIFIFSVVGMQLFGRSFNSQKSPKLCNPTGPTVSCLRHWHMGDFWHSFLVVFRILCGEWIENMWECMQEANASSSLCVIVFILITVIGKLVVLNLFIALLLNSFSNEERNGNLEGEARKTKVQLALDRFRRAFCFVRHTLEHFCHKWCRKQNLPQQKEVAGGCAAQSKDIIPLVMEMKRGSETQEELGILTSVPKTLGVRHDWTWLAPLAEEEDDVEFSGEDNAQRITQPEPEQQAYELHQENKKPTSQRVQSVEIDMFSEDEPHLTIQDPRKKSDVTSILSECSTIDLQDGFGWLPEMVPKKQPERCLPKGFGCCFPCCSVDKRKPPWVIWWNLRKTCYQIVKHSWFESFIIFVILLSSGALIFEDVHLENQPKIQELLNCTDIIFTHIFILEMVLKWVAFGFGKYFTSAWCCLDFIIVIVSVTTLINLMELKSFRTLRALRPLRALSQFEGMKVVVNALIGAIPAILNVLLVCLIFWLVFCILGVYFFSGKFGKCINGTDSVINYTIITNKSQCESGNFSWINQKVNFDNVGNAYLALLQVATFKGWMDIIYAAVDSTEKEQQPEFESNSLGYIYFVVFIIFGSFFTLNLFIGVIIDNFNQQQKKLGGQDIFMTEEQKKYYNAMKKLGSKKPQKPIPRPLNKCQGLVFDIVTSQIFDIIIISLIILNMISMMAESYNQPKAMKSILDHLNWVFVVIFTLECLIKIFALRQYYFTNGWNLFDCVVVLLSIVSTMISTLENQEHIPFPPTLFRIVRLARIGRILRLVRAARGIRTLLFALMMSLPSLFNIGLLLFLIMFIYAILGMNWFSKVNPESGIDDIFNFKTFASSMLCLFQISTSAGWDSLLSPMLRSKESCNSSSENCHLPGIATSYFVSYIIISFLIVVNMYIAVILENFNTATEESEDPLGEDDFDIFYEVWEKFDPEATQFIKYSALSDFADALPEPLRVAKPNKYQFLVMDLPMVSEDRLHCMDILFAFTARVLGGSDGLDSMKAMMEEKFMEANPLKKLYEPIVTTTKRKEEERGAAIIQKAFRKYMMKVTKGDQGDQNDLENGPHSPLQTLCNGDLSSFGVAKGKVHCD

Question: For ProTx-II, which “inhibition of Nav1.7 current, voltage dependence” value [1] is on record?
Answer: inhibits the current of the Nav1.7 channel with a significant voltage dependence

Question: Which “inhibition of Kv2.1 currents” value [2] does the source give for “HaTx1 (ECRYLFGGCKTTSDCCKHLGCKFRDKYCAWDFTFS; UniProt P56852 50-84, looked up)” here?
Answer: significantly inhibit the currents of the Kv2.1 channel

Question: For `CC[C@H](C)[C@@H]1NC(=O)[C@H](CC(N)=O)NC(=O)[C@@H]2CCCN2C(=O)[C@H](Cc2c[nH]c3ccccc23)NC(=O)[C@H](CCCCN)NC(=O)[C@H](CCCNC(=N)N)NC(=O)[C@H](CCCCN)NC(=O)[C@@H]2CSSC[C@@H]3NC(=O)[C@H](CO)NC(=O)CNC(=O)[C@H](Cc4c[nH]c5ccccc45)NC(=O)[C@H](Cc4ccccc4)NC(=O)[C@H](CCC(N)=O)NC(=O)[C@H](CCCCN)NC(=O)[C@@H](NC(=O)[C@@H](N)CCC(=O)O)CSSC[C@H](NC(=O)[C@H](CSSC[C@@H](C(=O)N[C@@H](CC(C)C)C(=O)N[C@@H](Cc4c[nH]c5ccccc45)C(=O)N[C@@H](CC(=O)O)C(=O)NCC(=O)N[C@H](C(=O)N[C@@H](Cc4ccccc4)C(=O)N[C@@H](CO)C(=O)N[C@@H](CCCCN)C(=O)O)[C@@H](C)O)NC1=O)NC(=O)[C@H](CC(=O)O)NC(=O)[C@H](CO)NC(=O)[C@H](CC(=O)O)NC(=O)[C@H](CCCNC(=N)N)NC(=O)[C@H](CO)NC3=O)C(=O)N[C@@H](CCCCN)C(=O)N[C@@H](Cc1c[nH]cn1)C(=O)N[C@@H](CC(C)C)C(=O)NCC(=O)N2` [Gr4b, δ-theraphotoxin-Gr4b] (H-ECKQFWGSCSRDSDCCKHLGCKRKWPNICLWDGTFSK-OH; disulfide 2-16, 9-21, 15-29), which EC50 [3] is on record?
Answer: 1500 ± 250 nM

Question: What about the IC50 [4] of the same compound?
Answer: 411 ± 184 nM

Question: And the EC50 [5]?
Answer: 25 ± 1 nM

Question: What about the IC50 [6] of the same compound?
Answer: 27 ± 3 nM

Question: Which “reversal of toxin binding by depolarization” value [7] does the source give for HWTX-IV here?
Answer: reversed by prolonged strong depolarizations

— paper PMC8685421 (Frontiers in Pharmacology, 2021)
